According to publication PMC12064818, “A general assay platform to study protein pharmacology using ligand-dependent structural dynamics” (Nature Communications, 2025):
Read-outs that look alike come from different tables or passages of the source.

Experiments:
P. pyralis FLuc = P. pyralis FLuc (Photinus pyralis, UniProt P08659); experiment: FLuc enzymatic luminescence assay, P. pyralis FLuc; format: biochemical; settings: FLuc enzymatic assay; for IC50: read-out: IC50 or SDR50 (mM) FLuc E
How it was run: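 Runs with and without 10 µM ATP: compounds were pre-incubated with FLuc (1–10 nM, PBS pH 7.4) at ambient temperature, light-protected, for 30–60 min. Luminescence was imaged 5 min after adding 10 µM D-luciferin (final). Inhibition was scaled between DMSO neutral and no-enzyme controls.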

NLuc = target: T1, NLuc (Oplophorus gracilirostris, UniProt Q9GV45, A31E/A60N/A81I/F95D/I117V/K70R/L54V/L99Q/M102K/N193R/P142E/Q151K/Q38R/Q45L/V71I/Y165I); format: biochemical; settings: - ATP
T1 construct: His tag (inferred from IMAC purification); made in house; host or cells: E. coli
Description: Compounds and controls were added to plates as described in Supplementary Data 8. Nano-Glo luciferase assay reagent (Promega) was prepared fresh according to manufacturer’s protocol, filtered and added at 3 μL per well across assay plates with a BioRaptr2 dispenser. Enzyme was incubated with Nano-Glo reagent for 10 min and NLuc luminescence was read on a ViewLux CCD imager (PerkinElmer), with 1 s exposure with medium gain and 2x binning. Data were normalized to average no enzyme control as 100% enzyme inhibition and average DMSO neutral control. See Supplementary Table 4 for additional details.
Supplementary Table 4. […]
Sequence Param eter Value Description […]
5 Detector ViewLux Read plate lum inescence (Exposure = 1- 10 sec; Gain = Medium -high; Speed = Slow;
Dispensing solution was diluted in 1X PBS, pH 7.4.
NanoLuc luciferase (NLuc) enzym atic lum inescence assay […]
Nano-Glo luciferase assay reagent (Prom ega, Cat # N1120) prepared according to m anufacturer’s recom m endations,
4 com ponents stored at -30 °C until use, and reagent prepared fresh for each assay.
syringe filter prior to dispense.

[1] = target: FLuc-C-HiBiT (firefly luciferase) (Photinus pyralis, UniProt P08659, form not given/L550V); experiment: SDR assay, FLuc-C-HiBiT; settings: SDR max. response, clade S
[2] = target: FLuc-C-NLuc (firefly luciferase) (Photinus pyralis, UniProt P08659, form not given/L550V); experiment: SDR assay, FLuc-C-NLuc; settings: - ATP
Sequence of FLuc-C-NLuc (firefly luciferase) (P08659 2-550 L550V, form open): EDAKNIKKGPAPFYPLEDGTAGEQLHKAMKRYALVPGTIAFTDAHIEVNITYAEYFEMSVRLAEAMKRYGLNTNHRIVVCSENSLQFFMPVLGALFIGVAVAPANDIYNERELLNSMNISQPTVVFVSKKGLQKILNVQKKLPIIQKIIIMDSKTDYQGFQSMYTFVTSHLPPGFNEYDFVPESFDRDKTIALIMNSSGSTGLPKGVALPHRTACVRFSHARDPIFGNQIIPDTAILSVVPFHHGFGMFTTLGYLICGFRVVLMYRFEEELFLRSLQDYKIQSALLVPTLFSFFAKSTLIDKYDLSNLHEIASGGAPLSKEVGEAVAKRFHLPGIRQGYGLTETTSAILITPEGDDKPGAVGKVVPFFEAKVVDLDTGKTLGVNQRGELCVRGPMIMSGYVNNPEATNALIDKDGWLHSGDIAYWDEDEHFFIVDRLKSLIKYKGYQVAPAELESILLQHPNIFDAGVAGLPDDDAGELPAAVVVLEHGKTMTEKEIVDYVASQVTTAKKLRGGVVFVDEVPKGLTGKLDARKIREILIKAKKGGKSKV

Sequence of FLuc-C-HiBiT (firefly luciferase) (P08659 2-550 L550V, form open): as above
T1 sequence (Q9GV45 other isoform, or with tags, fused parts or gaps with the stated changes): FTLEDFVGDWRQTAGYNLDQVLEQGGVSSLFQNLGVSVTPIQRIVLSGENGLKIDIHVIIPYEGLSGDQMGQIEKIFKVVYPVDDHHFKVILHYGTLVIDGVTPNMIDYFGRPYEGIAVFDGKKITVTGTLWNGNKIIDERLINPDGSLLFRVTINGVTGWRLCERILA
Sequence of P. pyralis FLuc (P08659 whole entry): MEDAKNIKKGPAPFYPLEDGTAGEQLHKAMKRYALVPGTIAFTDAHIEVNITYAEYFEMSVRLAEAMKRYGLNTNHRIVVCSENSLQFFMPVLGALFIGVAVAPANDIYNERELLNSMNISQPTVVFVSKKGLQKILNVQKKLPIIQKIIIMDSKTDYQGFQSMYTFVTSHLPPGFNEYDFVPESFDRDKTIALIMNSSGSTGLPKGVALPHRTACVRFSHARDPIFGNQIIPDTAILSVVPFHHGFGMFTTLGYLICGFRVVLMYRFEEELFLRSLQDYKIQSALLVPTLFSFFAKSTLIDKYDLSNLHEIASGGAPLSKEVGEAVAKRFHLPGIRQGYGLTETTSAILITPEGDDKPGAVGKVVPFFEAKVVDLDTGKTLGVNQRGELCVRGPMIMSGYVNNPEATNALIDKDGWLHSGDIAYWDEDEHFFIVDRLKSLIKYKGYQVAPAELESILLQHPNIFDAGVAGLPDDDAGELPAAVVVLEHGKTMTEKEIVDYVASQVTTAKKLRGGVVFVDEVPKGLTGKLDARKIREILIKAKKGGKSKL

| Compound | Efficacy (%) FLuc E (P. pyralis FLuc; Clade S follow-up) | Efficacy (%) NLuc (- ATP) (NLuc) | % Activity (max response, + ATP) [1] | % Activity (max response, - ATP) [1] | Efficacy (%) FLuc-C-NLuc SDR (-ATP) [2] | pIC50 or pSDR50 FLuc E (P. pyralis FLuc) | IC50 (P. pyralis FLuc) | pIC50 or pSDR50 FLuc E (P. pyralis FLuc; Clade S follow-up) | IC50 (P. pyralis FLuc; Clade S follow-up) |
| --- | --- | --- | --- | --- | --- | --- | --- | --- | --- |
| CCCCNC(=O)C1CCN(C(=O)c2ncn3c2COC(c2ccc(OC)cc2)C3)CC1 (centres unmarked) [NCGC00449864-01] | -10.96% | 0.00% | 0.00% | 0.00% | 0.00% | – | – | – | – |
| O=C(NCc1ccc(F)cc1F)C1CCN(C(=O)c2ncn3c2COC(c2ccc(F)cc2)C3)CC1 (centres unmarked) [NCGC00449819-01] | -12.89% | 0.00% | 18.59% | 0.00% | 0.00% | – | – | – | – |
| O=C(NCc1ccc(F)cc1F)C1CCN(C(=O)c2ncn3c2COC(c2ccccc2)C3)CC1 (centres unmarked) [NCGC00449785-01] | -69.49% | 0.00% | 291.32% | 0.00% | 0.00% | 5.06 | 0.0088 mM | – | – |
| COc1ccc(C2Cn3cnc(C(=O)N4CCC(C(=O)NC5CCCC5)CC4)c3CO2)cc1 (centres unmarked) [NCGC00449859-01] | 0.00% | 0.00% | 0.00% | 0.00% | 0.00% | – | – | – | – |
| COc1ccc(C2Cn3cnc(C(=O)N4CCC(C(=O)NCc5ccc(C)cc5)CC4)c3CO2)cc1 (centres unmarked) [NCGC00449866-01] | 0.00% | -22.39% | 0.00% | -10.00% | 0.00% | – | – | – | – |
| O=C(NCCC1=CCCCC1)C1CCN(C(=O)c2ncn3c2COC(c2ccc(F)cc2)C3)CC1 (centres unmarked) [NCGC00449811-01] | -41.16% | 0.00% | 50.67% | 0.00% | 0.00% | 5.01 | 0.00988 mM | – | – |
| COc1ccc(C2Cn3cnc(C(=O)N4CCC(C(=O)NC5CCCCCC5)CC4)c3CO2)cc1 (centres unmarked) [NCGC00449862-01] | 0.00% | -12.50% | 0.00% | 0.00% | 0.00% | – | – | – | – |
| O=C(NCc1ccccc1F)C1CCN(C(=O)c2ncn3c2COC(c2ccc(F)cc2)C3)CC1 (centres unmarked) [NCGC00449818-01] | -20.04% | 0.00% | 27.35% | 0.00% | 0.00% | – | – | – | – |
| O=C(NCc1ccccc1F)C1CCN(C(=O)c2ncn3c2COC(c2ccc(Cl)cc2)C3)CC1 (centres unmarked) [NCGC00449851-01] | -40.26% | 0.00% | 18.50% | 0.00% | 0.00% | – | – | 4.91 | 0.0124 mM |
| CC1CCC(NC(=O)C2CCN(C(=O)c3ncn4c3COC(c3ccc(F)cc3)C4)CC2)CC1 (centres unmarked) [NCGC00449808-01] | -26.58% | 0.00% | 39.00% | 0.00% | 0.00% | – | – | – | – |
| O=C(NCc1ccc(F)cc1)C1CCN(C(=O)c2ncn3c2COC(c2ccccc2)C3)CC1 (centres unmarked) [NCGC00449784-01] | -93.60% | 0.00% | 341.35% | 0.00% | 0.00% | 5.26 | 0.00555 mM | – | – |
| O=C(NCc1ccccc1)C1CCN(C(=O)c2ncn3c2COC(c2ccccc2)C3)CC1 (centres unmarked) [NCGC00449773-01] | -92.80% | 0.00% | 344.70% | 0.00% | 0.00% | 5.56 | 0.00278 mM | – | – |
| COc1ccc(C2Cn3cnc(C(=O)N4CCC(C(=O)NC5CCCCC5)CC4)c3CO2)cc1 (centres unmarked) [NCGC00449860-01] | 0.00% | 0.00% | 0.00% | 0.00% | 0.00% | – | – | – | – |
| O=C(NCc1cccc(Cl)c1)C1CCN(C(=O)c2ncn3c2COC(c2ccccc2)C3)CC1 (centres unmarked) [NCGC00449787-01] | -81.06% | -16.86% | 263.69% | 0.00% | 0.00% | 4.96 | 0.0111 mM | – | – |
| COc1cccc(CNC(=O)C2CCN(C(=O)c3ncn4c3COC(c3ccccc3)C4)CC2)c1 (centres unmarked) [NCGC00449777-01] | -78.20% | 0.00% | 322.03% | 0.00% | 0.00% | 5.26 | 0.00555 mM | – | – |
| Cc1cccc(CNC(=O)C2CCN(C(=O)c3ncn4c3COC(c3ccc(F)cc3)C4)CC2)c1 (centres unmarked) [NCGC00449836-01] | -28.36% | -9.94% | 48.27% | 0.00% | 0.00% | – | – | 4.91 | 0.0124 mM |
| Cc1ccc(NC(=O)C2CCN(C(=O)c3ncn4c3COC(c3ccc(F)cc3)C4)CC2)c(F)c1 (centres unmarked) [NCGC00449944-01] | -69.67% | 0.00% | 140.99% | 7.55% | 0.00% | – | – | 4.96 | 0.0111 mM |
| O=C(NCc1cccc(F)c1)C1CCN(C(=O)c2ncn3c2COC(c2ccccc2)C3)CC1 (centres unmarked) [NCGC00449803-01] | -83.73% | 0.00% | 254.28% | 0.00% | 0.00% | 5.11 | 0.00784 mM | – | – |
| Cc1ccc(NC(=O)C2CCN(C(=O)c3ncn4c3COC(c3ccccc3)C4)CC2)cc1C (centres unmarked) [NCGC00449904-01] | -72.15% | 0.00% | 306.70% | 0.00% | 0.00% | – | – | 5.01 | 0.00988 mM |
| O=C(NC1CCCC1)C1CCN(C(=O)c2ncn3c2COC(c2ccc(Cl)cc2)C3)CC1 (centres unmarked) [NCGC00449843-01] | -13.86% | 0.00% | 0.00% | 0.00% | 0.00% | – | – | – | – |
